Laboratory results as given in US11542235B2, “Herbicidal 3-azaspiro[5.5] undecane-8, 10-dione compounds” (SYNGENTA PARTICIPATIONS AG, priority 2018, dated 2023).

How the values were obtained:
Format in all cases: in vivo
Lolium perenne (LOLPE) = assay: Glasshouse herbicidal test, pre- and post-emergence, Lolium perenne; settings: 250 g/h, evaluated after 13 days, five point scale; for percentage damage caused to the plant, LOLPE POST: post-emergence; for percentage damage caused to the plant, LOLPE PRE: pre-emergence
Outline: (§1)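 A single spray at 250 g/h was given either to soil one day after sowing or to seedlings after eight days' growth. Vehicle was acetone/water (50:50) with 0.5% Tween 20. Thirteen days on, damage was rated in 20% bands, 1 (0-19%) to 5 (80-100%).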

Setaria faberi (SETFA) = assay: Glasshouse herbicidal test, pre- and post-emergence, Setaria faberi; settings: 250 g/h, evaluated after 13 days, five point scale; for percentage damage caused to the plant, SETFA PRE: pre-emergence; for percentage damage caused to the plant, SETFA POST: post-emergence
Outline: as §1

[1] = system: Alopecurus myosuroides (ALOMY); assay: Glasshouse herbicidal test, pre- and post-emergence, Alopecurus myosuroides; settings: 250 g/h, evaluated after 13 days, five point scale; for percentage damage caused to the plant, ALOMY POST: post-emergence; for percentage damage caused to the plant, ALOMY PRE: pre-emergence
Outline: as §1

[2] = system: Echinochloa crus-galli (ECHCG); assay: Glasshouse herbicidal test, pre- and post-emergence, Echinochloa crus-galli; settings: 250 g/h, evaluated after 13 days, five point scale; for percentage damage caused to the plant, ECHCG PRE: pre-emergence
Outline: as §1

Avena fatua (AVEFA) [3] = assay: Glasshouse herbicidal test, pre- and post-emergence, Avena fatua; settings: 250 g/h, evaluated after 13 days, five point scale; for percentage damage caused to the plant, AVEFA POST: post-emergence; for percentage damage caused to the plant, AVEFA PRE: pre-emergence
Outline: as §1

wheat = assay: Post-emergence crop phytotoxicity, wheat, with or without safener CQC
Protocol: (§2) Seeds of a variety of test species are sown in standard soil in pots (Lolium perenne (LOLPE), Setaria faberi (SETFA), Alopecurus myosuroides (ALOMY), Echinochloa crus-galli (ECHCG), Avena fatua (AVEFA)). After cultivation for one day (pre-emergence) or after 8 days cultivation (post-emergence) under controlled conditions in a glasshouse (at 24/16° C., day/night; 14 hours light; 65% humidity), the plants are sprayed with an aqueous spray solution derived from the formulation of the technical active ingredient in acetone/water (50:50) solution containing 0.5% Tween 20 (polyoxyethelyene sorbitan monolaurate, CAS RN 9005-64-5). Compounds are applied at […]. The test plants are then grown in a glasshouse under controlled conditions in a glasshouse (at 24/16° C., day/night; 14 hours light; 65% humidity) and watered twice daily. After 13 days for pre and post-emergence, the test is evaluated for the percentage damage caused to the plant. The biological activities are shown in the following table on a five point scale (5=80-100%; 4=60-79%; 3=40-59%; 2=20-39%; 1=0-19%).
(§3) Using procedures outlines above, wheat and barley crop plants are treated, along with two weed species Avena fatua (AVEFA) and Lolium multiflorum (LOLPE) post-emergence with compound A2 of the present invention or comparator compound C1 (Compound A-38 from WO2014/096289) at the application rates indicated. The compounds were also applied in conjunction with the safener compound cloquintocet-mexyl (CQC) at 50 g/ha.

barley = assay: Post-emergence crop phytotoxicity, barley, with or without safener CQC
Protocol: as §2, §3

Avena fatua (AVEFA) [4] = assay: Post-emergence weed phytotoxicity, Avena fatua, with or without safener CQC
Protocol: as §2, §3

Lolium multiflorum = assay: Post-emergence weed phytotoxicity, Lolium multiflorum, with or without safener CQC
Protocol: as §2, §3

[5] = 60 g/ha + safener cloquintocet-mexyl (CQC) at 50 g/ha

| Structure (SMILES) | percentage damage caused to the plant, LOLPE POST (Lolium perenne (LOLPE)) | percentage damage caused to the plant, LOLPE PRE (Lolium perenne (LOLPE)) | percentage damage caused to the plant, SETFA PRE (Setaria faberi (SETFA)) | percentage damage caused to the plant, ALOMY POST [1] | percentage damage caused to the plant, ALOMY PRE [1] | percentage damage caused to the plant, ECHCG PRE [2] | percentage damage caused to the plant, AVEFA POST (Avena fatua (AVEFA) [3]) | percentage damage caused to the plant, AVEFA PRE (Avena fatua (AVEFA) [3]) | % phytotoxicity, Wheat (wheat; 30 g/ha) [%] | % phytotoxicity, Wheat (wheat; 60 g/ha) [%] | % phytotoxicity, Wheat (wheat; [5]) [%] | % phytotoxicity, Barley (barley; 30 g/ha) [%] | % phytotoxicity, Barley (barley; 60 g/ha) [%] | % phytotoxicity, Barley (barley; [5]) [%] | % phytotoxicity, AVENA (Avena fatua (AVEFA) [4]; 30 g/ha) [%] | % phytotoxicity, AVENA (Avena fatua (AVEFA) [4]; 60 g/ha) [%] | % phytotoxicity, AVENA (Avena fatua (AVEFA) [4]; [5]) [%] | % phytotoxicity, LOLMU (Lolium multiflorum; 30 g/ha) [%] | % phytotoxicity, LOLMU (Lolium multiflorum; 60 g/ha) [%] | % phytotoxicity, LOLMU (Lolium multiflorum; [5]) [%] | further results |
| --- | --- | --- | --- | --- | --- | --- | --- | --- | --- | --- | --- | --- | --- | --- | --- | --- | --- | --- | --- | --- | --- |
| CC#Cc1cc(C)c(C2C(=O)CC3(CCN(C(C)=O)CC3)CC2=O)c(C)c1 [Compound A2, 3-acetyl-9-(2,6-dimethyl-4-prop-1-ynyl-phenyl)-3-azaspiro[5.5]undecane-8,10-dione] | 5 (5=80-100%) | 5 (5=80-100%) | 5 (5=80-100%) | 5 (5=80-100%) | 5 (5=80-100%) | 5 (5=80-100%) | 5 (5=80-100%) | 5 (5=80-100%) | 5 | 15 | 5 | 0 | 15 | 0 | 75 | 92 | 92 | 98 | 100 | 100 | percentage damage caused to the plant, ECHCG POST ([2]; post-emergence): 5 (5=80-100%); damage to the wheat crop compared to prior art compound C1 (wheat; rates of Table B2): significantly less damaging; damage to the barley crop compared to prior art compound C1 (barley; rates of Table B2): significantly less damaging |
| CC#Cc1cc(C)c(C2C(=O)CC3(CCOCC3)CC2=O)c(C)c1 [Compound C1, reference compound] | – | – | – | – | – | – | – | – | 25 | 75 | 50 | 5 | 90 | 18 | 65 | 90 | 80 | 98 | 100 | 100 | – |
| C#CCOC1=C(c2c(C)cc(C#CC)cc2C)C(=O)CC2(CCN(C(C)=O)CC2)C1 [Compound P17] | 5 (5=80-100%) | 5 (5=80-100%) | 5 (5=80-100%) | 5 (5=80-100%) | 5 (5=80-100%) | 5 (5=80-100%) | 5 (5=80-100%) | 5 (5=80-100%) | – | – | – | – | – | – | – | – | – | – | – | – | percentage damage caused to the plant, SETFA POST (Setaria faberi (SETFA)): 5 (5=80-100%) |
| CC#Cc1cc(C)c(C2=C(OC(=O)OC)CC3(CCN(C(C)=O)CC3)CC2=O)c(OC)c1 [Compound P18] | 5 (5=80-100%) | 5 (5=80-100%) | 5 (5=80-100%) | 5 (5=80-100%) | 5 (5=80-100%) | 5 (5=80-100%) | 5 (5=80-100%) | 5 (5=80-100%) | – | – | – | – | – | – | – | – | – | – | – | – | percentage damage caused to the plant, SETFA POST (Setaria faberi (SETFA)): 5 (5=80-100%) |
